Data reported in ChEMBL document CHEMBL1201862, “PubChem BioAssay data set” (2004).
Several values for one entry are separate records, joined by “and”; a condition that tells them apart may be missing. Identical values can stand only once.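 These data come from cells grown in 96-well plates and exposed to compound for 48 hours at five concentrations. Abbreviation: GI50, concentration required for 50% inhibition of growth.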 Activity calls are given as the source filed them. No stated cut-off is given here; in the data, active = GI50 up to about 1.1 µM and inactive = higher. *1 amine or outer side, *2 acyl side, *3 side chain or, on linkers, in order; H or OH if unused. Where a SMILES comes first, the peptide text is derived from it. [ ]: non-standard residue; d: D form. The star is where a group is joined. ξ: configuration not given here. X26 = O=C([C@H]1CCC[C@H]1N[*:1])[*:2]; ξW = NC(Cc1c[nH]c2ccccc12)C(=O)O; ξF = NC(Cc1ccccc1)C(=O)O; Boc = CC(C)(C)OC(=O)*; ξK = NCCCCC(N)C(=O)O; ξT = CC(O)C(N)C(=O)O; tBu = CC(C)(C)*

Assays:
Test in all cases: NCI anticancer screen, dose series, 48 h
[1] = test system: 786-0
[2] = test system: A498
[3] = test system: A549
[4] = test system: ACHN
[5] = test system: BT-549
[6] = test system: CAKI-1
[7] = test system: COLO 205
[8] = test system: DU-145
[9] = test system: EKVX
[10] = test system: HCT-116
[11] = test system: HCT-15
[12] = test system: HOP-62
[13] = test system: HOP-92
[14] = test system: HT-29
[15] = test system: IGROV-1
[16] = test system: K562
[17] = test system: KM12
[18] = test system: LOX IMVI
[19] = test system: M14
[20] = test system: MDA-MB-231
[21] = test system: MDA-MB-435
[22] = test system: MOLT-4
[23] = test system: Malme-3M
[24] = test system: NCI-H226
[25] = test system: NCI-H23
[26] = test system: NCI-H460
[27] = test system: NCI-H522
[28] = test system: NCI/ADR-RES
[29] = test system: OVCAR-3
[30] = test system: OVCAR-4
[31] = test system: OVCAR-5
[32] = test system: OVCAR-8
[33] = test system: RPMI-8226
[34] = test system: RXF 393
[35] = test system: SF-268
[36] = test system: SF-295
[37] = test system: SF-539
[38] = test system: SK-MEL-28
[39] = test system: SK-MEL-5
[40] = test system: SK-OV-3
[41] = test system: SN12C
[42] = test system: SNB-19
[43] = test system: SNB-75
[44] = test system: SW-620
[45] = test system: T47D
[46] = test system: TK-10
[47] = test system: U-251
[48] = test system: UACC-257
[49] = test system: UO-31
[50] = test system: CCRF-CEM
[51] = test system: HCC 2998
[52] = test system: HL-60
[53] = test system: Hs-578T
[54] = test system: MCF7
[55] = test system: MDA-N
[56] = test system: PC-3
[57] = test system: SK-MEL-2
[58] = test system: SR
[59] = test system: UACC-62

Measured: GI50

COC(=O)C1=C(CCC[C@H](C)O[Si](C)(C)C(C)(C)C)NC(=O)N2[C@@H](CCO)CC[C@H]12
inactive: [1] 14.5 µM | [2] 16.6 µM | [3] 12.3 µM | [4] 16.2 µM | [5] 15 µM | [6] 17.2 µM | [7] 17.6 µM | [8] 19.1 µM | [9] 12.4 µM | [10] 4.18 µM | [12] 14.1 µM | [13] 14.2 µM | [14] 15.4 µM | [15] 15.8 µM | [16] 6.92 µM | [17] 18.3 µM | [18] 16.9 µM | [19] 16.3 µM | [20] 16.2 µM | [21] 17.7 µM | [22] 18.6 µM | [23] 12.5 µM | [24] 14.6 µM | [25] 13.2 µM | [26] 20.3 µM | [27] 5.71 µM | [28] 13.9 µM | [29] 13.3 µM | [30] 16.5 µM | [31] 19.4 µM | [32] 15.5 µM | [33] 14.9 µM | [34] 12.4 µM | [35] 14.6 µM | [36] 11.7 µM | [37] 16.7 µM | [38] 18.5 µM | [39] 7.82 µM | [40] 15.8 µM | [41] 15 µM | [42] 15.2 µM | [43] 15.7 µM | [44] 20.1 µM | [45] 11.6 µM | [46] 18.6 µM | [47] 15.5 µM | [48] 11.8 µM | [49] 15.6 µM
15 µM: [11]

C[C@@H](Br)[C@@H]1CC[C@H]2c3[nH]c4ccccc4c3CCN2C1
17.5 µM: [11]
inactive: [1] 18.6 µM | [2] 31.2 µM | [3] 34.4 µM | [4] 33.8 µM | [6] 16.6 µM | [50] 17.5 µM | [7] 13.5 µM | [8] 29.3 µM | [9] 33.1 µM | [51] 16 µM | [52] 20 µM | [12] 18.6 µM | [13] 18.1 µM | [14] 25 µM | [53] 13.3 µM | [15] 12.1 µM | [16] 15.5 µM | [17] 14.5 µM | [18] 16.5 µM | [19] 19.8 µM | [54] 23.7 µM | [20] 16.1 µM | [21] 16.3 µM | [55] 19.4 µM | [22] 17.7 µM | [23] 18.8 µM | [24] 28.6 µM | [25] 20.5 µM | [26] 22.5 µM | [27] 13.2 µM | [28] 20.2 µM | [29] 15.6 µM | [30] 28 µM | [31] 34.4 µM | [32] 26.9 µM | [56] 22.4 µM | [33] 13.6 µM | [34] 20.4 µM | [35] 26.8 µM | [36] 19.5 µM | [38] 24.4 µM | [57] 20.6 µM | [39] 15.9 µM | [40] 24.7 µM | [42] 20.1 µM | [43] 18.5 µM | [58] 16.5 µM | [44] 21.8 µM | [45] 16.5 µM | [46] 31.7 µM | [47] 21.5 µM | [48] 27.4 µM | [59] 14.5 µM | [49] 24.8 µM

C=C(Br)CN(C#N)CC(=C)Br
inactive: [1] > 100 µM | [2] > 100 µM | [3] > 100 µM | [4] > 100 µM | [6] > 100 µM | [50] > 100 µM | [7] > 100 µM | [8] > 100 µM | [9] > 100 µM | [51] > 100 µM | [10] > 100 µM | [52] 8.85 µM | [12] > 100 µM | [14] > 100 µM | [53] > 100 µM | [15] > 100 µM | [16] > 100 µM | [17] > 100 µM | [18] > 100 µM | [19] > 100 µM | [54] > 100 µM | [20] > 100 µM | [21] > 100 µM | [55] > 100 µM | [22] > 100 µM | [23] > 100 µM | [24] > 100 µM | [25] > 100 µM | [26] > 100 µM | [27] > 100 µM | [28] > 100 µM | [29] > 100 µM | [30] > 100 µM | [31] > 100 µM | [32] > 100 µM | [56] > 100 µM | [33] > 100 µM | [34] > 100 µM | [35] > 100 µM | [36] > 100 µM | [37] > 100 µM | [38] > 100 µM | [57] > 100 µM | [39] > 100 µM | [40] > 100 µM | [41] > 100 µM | [42] > 100 µM | [43] > 100 µM | [58] > 100 µM | [44] > 100 µM | [45] > 100 µM | [46] > 100 µM | [47] > 100 µM | [48] > 100 µM | [59] > 100 µM | [49] > 100 µM
> 100 µM: [11]

CC(OC(C)(C)C)C1NC(=O)C(CCCCNC(=O)OC(C)(C)C)NC(=O)C(Cc2c[nH]c3ccccc23)NC(=O)C(Cc2ccccc2)NC(=O)[C@H]2CCC[C@H]2NC(=O)C(Cc2ccccc2)NC1=O (stereo not given in full) (cyclo([X26][ξF][ξW][ξK](Boc)[ξT](tBu)[ξF]))
> 100 µM: [11]
inactive: [1] > 100 µM | [3] 73.3 µM | [4] > 100 µM | [6] > 100 µM | [50] 9.06 µM | [7] 18.9 µM | [8] 93.8 µM | [9] > 100 µM | [51] 12.2 µM | [10] 7.26 µM | [52] > 100 µM | [12] > 100 µM | [13] > 100 µM | [14] 11.4 µM | [53] 2.67 µM | [15] 50.4 µM | [16] 9.57 µM | [17] > 100 µM | [18] 16.1 µM | [19] 28.3 µM | [54] 11.6 µM | [20] 31.8 µM | [21] 29.9 µM | [55] 56.2 µM | [22] 14.2 µM | [23] > 100 µM | [24] 39.2 µM | [25] 23.8 µM | [26] 38.2 µM | [27] 61.7 µM | [28] > 100 µM | [29] > 100 µM | [30] > 100 µM | [31] 17.9 µM | [32] 18.2 µM | [56] 6.37 µM | [33] 8.71 µM | [34] > 100 µM | [35] > 100 µM | [36] 9.79 µM | [37] 75.9 µM | [38] > 100 µM | [57] 26.1 µM | [39] 3.13 µM | [40] 48 µM | [41] 17.2 µM | [42] 30 µM | [43] 5.3 µM | [58] 72.3 µM | [44] > 100 µM | [45] 15.2 µM | [47] 25.5 µM | [48] 5.41 µM | [59] 28.5 µM | [49] > 100 µM

Cc1cc(O)c2c(c1)C(=O)C=CC2=O [RAMENTACEONE]
active: [50] 121 nM and 212 nM | [22] 424 nM and 298 nM
inactive: [2] 22 µM and 31.4 µM | [3] 25.4 µM and 19.1 µM | [7] 3.92 µM and 2.74 µM | [8] 19.7 µM and 16.4 µM | [51] 11.2 µM and 15.6 µM | [10] 4.34 µM and 3.72 µM | [12] 19.5 µM and 21 µM | [14] 7.05 µM and 5.74 µM | [53] 19.4 µM and 15.7 µM | [15] 14.1 µM and 9.38 µM | [17] 14.1 µM and 16.1 µM | [18] 3.04 µM and 5.55 µM | [19] 6.68 µM and 8.77 µM | [54] 7.05 µM and 4.79 µM | [20] 5.06 µM and 9.31 µM | [55] 2.21 µM and 3.56 µM | [24] 18.6 µM and 17.8 µM | [25] 8.39 µM and 12.4 µM | [26] 19.3 µM and 16.3 µM | [28] 8.15 µM and 15.9 µM | [29] 1.66 µM and 2.27 µM | [31] 19.4 µM and 18 µM | [56] 11.2 µM and 17.7 µM | [34] 4.41 µM and 2.7 µM | [35] 17.7 µM and 10.4 µM | [36] 16.5 µM and 17.4 µM | [37] 16.9 µM and 14.9 µM | [57] 14.9 µM and 19.1 µM | [40] 27.9 µM and 28 µM | [41] 7.76 µM and 12.1 µM | [42] 20.6 µM and 17.1 µM | [43] 15.5 µM and 16.6 µM | [45] 2.65 µM and 3.11 µM | [48] 5.25 µM and 4.05 µM | [59] 4.72 µM and 7.38 µM | [49] 4.69 µM and 2.91 µM
